Assay results reported in PubChem BioAssay (NCI).
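Test compounds were applied to cells in 96-well plates for 48 hours at 5 doses. Abbreviation: GI50, concentration required for 50% inhibition of growth. TGI marks complete inhibition of growth.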

Tests used:
Assay in all cases: inhibition of tumour cell growth, NCI panel, 48 h
[1] = test system: 786-0 renal
[2] = test system: A498 renal
[3] = test system: A549 NSCLC
[4] = test system: ACHN renal
[5] = test system: BT-549 breast
[6] = test system: CAKI-1 renal
[7] = test system: CCRF-CEM leukemia
[8] = test system: COLO 205 colon
[9] = test system: DU-145 prostate
[10] = test system: EKVX NSCLC
[11] = test system: HCC-2998 colon
[12] = test system: HCT-116 colon
[13] = test system: HCT-15 colon
[14] = test system: HL-60(TB) leukemia
[15] = test system: HOP-62 NSCLC
[16] = test system: HOP-92 NSCLC
[17] = test system: HS 578T breast
[18] = test system: HT29 colon
[19] = test system: IGROV1 ovarian
[20] = test system: K-562 leukemia
[21] = test system: KM12 colon
[22] = test system: LOX IMVI melanoma
[23] = test system: M14 melanoma
[24] = test system: MALME-3M melanoma
[25] = test system: MCF7 breast
[26] = test system: MDA-MB-231 breast
[27] = test system: MDA-MB-435
[28] = test system: MDA-MB-468 breast
[29] = test system: MOLT-4 leukemia
[30] = test system: NCI-H226 lung
[31] = test system: NCI-H23 lung
[32] = test system: NCI-H460 lung
[33] = test system: NCI-H522 lung
[34] = test system: NCI/ADR-RES ovarian
[35] = test system: OVCAR-3 ovarian
[36] = test system: OVCAR-4 ovarian
[37] = test system: OVCAR-5 ovarian
[38] = test system: OVCAR-8 ovarian
[39] = test system: PC-3 prostate
[40] = test system: RPMI-8226 leukemia
[41] = test system: RXF 393 renal
[42] = test system: SF-268 CNS
[43] = test system: SF-295 CNS
[44] = test system: SF-539 CNS
[45] = test system: SK-MEL-2 melanoma
[46] = test system: SK-MEL-28 melanoma
[47] = test system: SK-MEL-5 melanoma
[48] = test system: SK-OV-3 ovarian
[49] = test system: SN12C renal
[50] = test system: SNB-19 CNS
[51] = test system: SNB-75 CNS
[52] = test system: SW-620 colon
[53] = test system: T-47D breast
[54] = test system: TK-10 renal
[55] = test system: U251 CNS
[56] = test system: UACC-257 melanoma
[57] = test system: UACC-62 melanoma
[58] = test system: UO-31 renal

`CCOc1ccccc1NC(=O)N/C(N)=N/c1nc2ccccc2s1` was tested. Which GI50 [1] did it give?
Its GI50 is 29.6 nM.

What about the TGI [1] of the same molecule?
The TGI was 13300 nM.

What about the GI50 [2] of the same molecule?
The GI50 was 22100 nM.

What about the TGI [2] of the same molecule?
Its TGI is 44600 nM.

What about the GI50 [3] of the same molecule?
The GI50 was 53.2 nM.

What about the TGI [3] of the same molecule?
Its TGI is greater than 53100 nM.

What about the GI50 [4] of the same molecule?
The GI50 was less than 15.2 nM.

And the TGI [4]?
Its TGI is 22700 nM.

What about the GI50 [5] of the same molecule?
Its GI50 is 24.6 nM.

And the TGI [5]?
The TGI was 126 nM.

And the GI50 [6]?
The GI50 was less than 14.1 nM.

And the TGI [6]?
The TGI was greater than 49000 nM.

What about the GI50 [7] of the same molecule?
The GI50 was 28.9 nM.

And the TGI [7]?
The TGI was greater than 32500 nM.

And the GI50 [8]?
The GI50 was 30.1 nM.

What about the TGI [8] of the same molecule?
The TGI was 106 nM.

And the GI50 [9]?
Its GI50 is 28.7 nM.

What about the TGI [9] of the same molecule?
The TGI was 11900 nM.

And the GI50 [10]?
The GI50 was 45.8 nM.

What about the TGI [10] of the same molecule?
The TGI was 35000 nM.

What about the GI50 [11] of the same molecule?
Its GI50 is 24.2 nM.

And the TGI [11]?
Its TGI is 10900 nM.

And the GI50 [12]?
Its GI50 is less than 15.7 nM.

What about the TGI [12] of the same molecule?
The TGI was 310 nM.

And the GI50 [13]?
Its GI50 is less than 16.8 nM.

What about the TGI [13] of the same molecule?
The TGI was 12600 nM.

What about the GI50 [14] of the same molecule?
The GI50 was 17.7 nM.

What about the TGI [14] of the same molecule?
Its TGI is 59.6 nM.

And the GI50 [15]?
Its GI50 is less than 20 nM.

And the TGI [15]?
Its TGI is 20000 nM.

And the GI50 [16]?
Its GI50 is 6330 nM.

What about the TGI [16] of the same molecule?
The TGI was greater than 58700 nM.

What about the GI50 [17] of the same molecule?
Its GI50 is less than 10.7 nM.

What about the TGI [17] of the same molecule?
The TGI was greater than 78600 nM.

And the GI50 [18]?
Its GI50 is 21 nM.

And the TGI [18]?
The TGI was 67.3 nM.

And the GI50 [19]?
The GI50 was 27.4 nM.

What about the TGI [19] of the same molecule?
The TGI was 30100 nM.

And the GI50 [20]?
Its GI50 is less than 10 nM.

What about the TGI [20] of the same molecule?
Its TGI is greater than 35600 nM.

And the GI50 [21]?
The GI50 was less than 13.8 nM.

What about the TGI [21] of the same molecule?
Its TGI is greater than 45800 nM.

What about the GI50 [22] of the same molecule?
Its GI50 is less than 14.8 nM.

And the TGI [22]?
Its TGI is 15100 nM.

What about the GI50 [23] of the same molecule?
Its GI50 is less than 14 nM.

What about the TGI [23] of the same molecule?
Its TGI is 23200 nM.

And the GI50 [24]?
Its GI50 is less than 18.5 nM.

And the TGI [24]?
The TGI was 45100 nM.

What about the GI50 [25] of the same molecule?
The GI50 was 26.5 nM.

And the TGI [25]?
The TGI was 23300 nM.

And the GI50 [26]?
Its GI50 is less than 16.2 nM.

What about the TGI [26] of the same molecule?
Its TGI is 744 nM.

And the GI50 [27]?
Its GI50 is less than 10 nM.

And the TGI [27]?
The TGI was 14.6 nM.

And the GI50 [28]?
The GI50 was 23.3 nM.

And the TGI [28]?
Its TGI is 61.5 nM.

And the GI50 [29]?
Its GI50 is 38.8 nM.

What about the TGI [29] of the same molecule?
Its TGI is greater than 33500 nM.

And the GI50 [30]?
The GI50 was 43.5 nM.

What about the TGI [30] of the same molecule?
The TGI was 1480 nM.

What about the GI50 [31] of the same molecule?
The GI50 was less than 18.6 nM.

What about the TGI [31] of the same molecule?
The TGI was 23000 nM.

What about the GI50 [32] of the same molecule?
Its GI50 is 26.4 nM.

What about the TGI [32] of the same molecule?
The TGI was 10900 nM.

And the GI50 [33]?
Its GI50 is less than 10 nM.

And the TGI [33]?
Its TGI is 20.1 nM.

And the GI50 [34]?
Its GI50 is less than 10 nM.

And the TGI [34]?
The TGI was 29.8 nM.

And the GI50 [35]?
Its GI50 is less than 10 nM.

What about the TGI [35] of the same molecule?
The TGI was 11400 nM.

And the GI50 [36]?
The GI50 was 11100 nM.

What about the TGI [36] of the same molecule?
The TGI was 63600 nM.

And the GI50 [37]?
Its GI50 is 37.8 nM.

And the TGI [37]?
The TGI was greater than 41000 nM.

And the GI50 [38]?
Its GI50 is less than 17.2 nM.

What about the TGI [38] of the same molecule?
Its TGI is 26900 nM.

And the GI50 [39]?
Its GI50 is 25.2 nM.

What about the TGI [39] of the same molecule?
Its TGI is greater than 74600 nM.

What about the GI50 [40] of the same molecule?
Its GI50 is 37.1 nM.

What about the TGI [40] of the same molecule?
Its TGI is greater than 39700 nM.

What about the GI50 [41] of the same molecule?
Its GI50 is less than 12.9 nM.

And the TGI [41]?
Its TGI is 40000 nM.

And the GI50 [42]?
The GI50 was 84.6 nM.

And the TGI [42]?
The TGI was greater than 100000 nM.

What about the GI50 [43] of the same molecule?
Its GI50 is less than 16.4 nM.

What about the TGI [43] of the same molecule?
The TGI was 13800 nM.

And the GI50 [44]?
Its GI50 is less than 11.9 nM.

And the TGI [44]?
The TGI was less than 22.5 nM.

What about the GI50 [45] of the same molecule?
Its GI50 is 25.9 nM.

What about the TGI [45] of the same molecule?
Its TGI is 42500 nM.

And the GI50 [46]?
The GI50 was 14500 nM.

What about the TGI [46] of the same molecule?
Its TGI is greater than 100000 nM.

What about the GI50 [47] of the same molecule?
Its GI50 is less than 14.1 nM.

And the TGI [47]?
Its TGI is 34.1 nM.

What about the GI50 [48] of the same molecule?
Its GI50 is 49.1 nM.

What about the TGI [48] of the same molecule?
The TGI was greater than 77400 nM.

And the GI50 [49]?
Its GI50 is 27.2 nM.

And the TGI [49]?
The TGI was 13800 nM.

What about the GI50 [50] of the same molecule?
The GI50 was 31 nM.

And the TGI [50]?
The TGI was 53800 nM.

What about the GI50 [51] of the same molecule?
The GI50 was less than 10 nM.

What about the TGI [51] of the same molecule?
The TGI was greater than 69100 nM.

And the GI50 [52]?
The GI50 was less than 17.5 nM.

And the TGI [52]?
The TGI was greater than 42300 nM.

What about the GI50 [53] of the same molecule?
The GI50 was 13900 nM.

And the TGI [53]?
Its TGI is greater than 100000 nM.

What about the GI50 [54] of the same molecule?
Its GI50 is greater than 39400 nM.

And the TGI [54]?
Its TGI is greater than 100000 nM.

And the GI50 [55]?
The GI50 was less than 16.4 nM.

And the TGI [55]?
Its TGI is 13700 nM.

What about the GI50 [56] of the same molecule?
The GI50 was 32000 nM.

What about the TGI [56] of the same molecule?
The TGI was greater than 100000 nM.

And the GI50 [57]?
The GI50 was less than 10 nM.

And the TGI [57]?
The TGI was greater than 55600 nM.

And the GI50 [58]?
Its GI50 is less than 30.8 nM.

And the TGI [58]?
Its TGI is greater than 88600 nM.
